Measurements from US8785594B2, “Glycoproteins and glycosylated cells and a method for the preparation of the same” (Glycom A/S, priority 2007, dated 2014).

Tests used:
B16.BL6 melanoma cells [1] = experiment: Cell concentration and viability after conjugation, trypan blue (Example 14); assay type: cell-based
Protocol: (§1) Nine flasks (300 cm^2) (TPP, Trasadingen Switzerland) of confluent B16.BL6 melanoma cells grown in DMEM containing 10% fetal calf serum (without P/S) at 37.5° C. in 5% CO2 were used for this experiment. Growth medium was removed from the cells and 20 mL of HBSS containing D-glucose (without Mg^2+ and Ca^2+) (Gibco, Invitrogen, Taastrup, Denmark) was added to the cells and immediately removed again. Another 10 mL of HBSS containing D-glucose (without Mg^2+ and Ca^2+) was added and removed, before cells were harvested with Cell Dissociation Solution C5914 (Sigma-aldrich, Saint Louis, Mo.) (10 mL per flask) and transferred to 50 mL tubes (TPP, Trasadingen Switzerland). The cells were centrifuged for 3 minutes at 300 G at 20° C. and the supernatant was discarded. Subsequently, cells were washed twice in HBSS containing D-glucose (without Mg^2+ and Ca^2+), centrifuged as above and resuspended in HBSS containing D-glucose (without Mg^2+ and Ca^2+). The concentration of the cell suspension was determined.
Radioactive labelled and regular trisaccharide probe was dissolved in HBSS containing D-glucose (without Mg^2+ and Ca^2+) (Gibco Invitrogen, Taastrup, Denmark) and passed through sterile filters (0.2 μm Supor® Acrodisc® 13, Gelman Sciences, Ann Arbor, Mich.). Four different concentrations of each “Glycom conjugate” (25 mg, 5 mg, 1 mg and 0.1 mg) were made. Twelve flasks (150 cm^2) (TPP, Trasadingen Switzerland) were prepared each containing a total of 10×10^6 B16.BL6 cells. The trisaccharide probe was added and the total volume was adjusted to 20 mL with HBSS containing D-glucose (without Mg^2+ and Ca^2+). The cells were incubated with the “Glycom conjugate” for 1.5 hours at 37° C. After conjugation, the supernatant from each flask was transferred to separate 50 mL tubes (TPP, Trasadingen Switzerland). The cells were harvested with Cell Dissociation Solution C5914 (5 mL per flask) (Sigma-Aldrich, Saint Louis, Mo. and transferred to the 50 mL tubes containing the supernatant. The cells were centrifuged for 3 minutes at 300 G at 20° C. and resuspended in 5 mL of PBS (without Mg^2+ and Ca^2+). This was repeated 3 times before cell concentration and viability was determined by microscopical evaluation of trypan blue stained cell samples.

B16.BL6 melanoma cells [2] = experiment: Cell concentration and viability after conjugation, trypan blue (Example 15); assay type: cell-based
Protocol: as §1, with “Twelve flasks” for “Nine flasks”, “CO2 was” for “CO2 were”
Radioactive labelled and regular alpha-Gal trisaccharide-carbamate (9) probe (labeled on the cyclic carbamate carbon) was dissolved in HBSS containing D-glucose (without Mg^2+ and Ca^2+) (Gibco Invitrogen, Taastrup, Denmark) and passed through sterile filters (0.2 μm Supor® Acrodisc® 13, Gelman Sciences, Ann Arbor, Mich.). Eight different concentrations of radioactive labelled alpha-Gal trisaccharide-carbamate (9) (1 μg, 10 μg, 100 μg, 1 mg, 5 mg, 10 mg, 15 mg and 20 mg) and […] concentrations of regular “Glycom conjugate” (10 μg, 100 μg, 1 mg, 5 mg, 10 mg, 15 mg and 20 mg) were used. Twelve flasks (300 cm^2) (TPP, Trasadingen Switzerland) were prepared, each containing 10×10^6 B16.BL6 cells, for conjugation with the radioactive labelled trisaccharide probe, and 8 flasks (150 cm^2) (TPP, Trasadingen Switzerland) were prepared, each containing 5×10^6 B16.BL6 cells, for conjugation with the non-radioactive conjugate. The Glycom conjugate was added and the total volume was adjusted with HBSS containing D-glucose (without Mg^2+ and Ca^2+) so that each large flask (300 cm^2) contained a final volume of 20 mL and each medium flask (150 cm^2) contained a final volume of 10 mL. Cells were incubated with the “Glycom conjugate” for 1.5 hours at 37° C. After conjugation, the supernatant from each flask was transferred to separate 50 mL tubes (TPP, Trasadingen Switzerland). The cells were harvested with Cell Dissociation Solution (10 mL per large flask and 5 mL per medium flask) (Sigma-aldrich, Saint Louis, Mo.) and transferred to the 50 mL tubes containing the supernatant. The cells were centrifuged for 5 minutes at 300 G at 20° C. and resuspended in 5 mL of PBS (without Mg^2+ and Ca^2+). […]

[3] = regular conjugate 25 mg, 10×10^6 cells, 1.5 hours
[4] = reaction 2, regular conjugate 20 mg, 5×10^6 cells, 1.5 hours, after washing once
[5] = reaction 3, regular conjugate 15 mg
[6] = reaction 4, regular conjugate 10 mg
[7] = reaction 5, regular conjugate 5 mg
[8] = reaction 6, regular conjugate 1 mg
[9] = reaction 7, regular conjugate 100 μg
[10] = reaction 8, regular conjugate 10 μg
[11] = radioactive labelled conjugate 0.1 mg
[12] = radioactive labelled conjugate 1 mg
[13] = radioactive labelled conjugate 5 mg, cells from supernatant only
[14] = radioactive labelled conjugate 25 mg, attached cells only
[15] = reaction C, radioactive labelled conjugate 20 mg, 10×10^6 cells, 1.5 hours, after washing 4 times
[16] = reaction D, radioactive labelled conjugate 15 mg
[17] = reaction E, radioactive labelled conjugate 10 mg
[18] = reaction F, radioactive labelled conjugate 5 mg
[19] = reaction G, radioactive labelled conjugate 1 mg
[20] = reaction H, radioactive labelled conjugate 100 μg
[21] = reaction I, radioactive labelled conjugate 10 μg
[22] = reaction J, radioactive labelled conjugate 1 μg

For `O=C1N[C@@H]2O[C@H](CO)[C@@H](O[C@@H]3O[C@H](CO)[C@H](O)[C@H](O[C@H]4O[C@H](CO)[C@H](O)[C@H](O)[C@H]4O)[C@H]3O)[C@H](O)[C@H]2O1` [Compound 9, alpha-Gal trisaccharide-carbamate], the Cell concentration (B16.BL6 melanoma cells [1]; regular conjugate 0.1 mg) was 7.4 × 10^5, the Cells harvested (B16.BL6 melanoma cells [1]; regular conjugate 0.1 mg) was 3.7 × 10^6 and the “Cells harvested (percent)” value (B16.BL6 melanoma cells [1]; regular conjugate 0.1 mg) was 37%. For the same compound, the Viability (B16.BL6 melanoma cells [1]; regular conjugate 0.1 mg) was 67.6%, the Cell concentration (B16.BL6 melanoma cells [1]; regular conjugate 1 mg) was 13.4 × 10^5 and the Cells harvested (B16.BL6 melanoma cells [1]; regular conjugate 1 mg) was 6.7 × 10^6. The “Cells harvested (percent)” value (B16.BL6 melanoma cells [1]; regular conjugate 1 mg) was 67%, the Viability (B16.BL6 melanoma cells [1]; regular conjugate 1 mg) was 79.1% and the Cell concentration (B16.BL6 melanoma cells [1]; regular conjugate 5 mg) was 7.0 × 10^5. The Cells harvested (B16.BL6 melanoma cells [1]; regular conjugate 5 mg) was 3.5 × 10^6, the “Cells harvested (percent)” value (B16.BL6 melanoma cells [1]; regular conjugate 5 mg) was 35% and the Viability (B16.BL6 melanoma cells [1]; regular conjugate 5 mg) was 91.4%. The Cell concentration (B16.BL6 melanoma cells [1]; [3]) was 9.0 × 10^5, the Cells harvested (B16.BL6 melanoma cells [1]; [3]) was 4.5 × 10^6 and the “Cells harvested (percent)” value (B16.BL6 melanoma cells [1]; [3]) was 45%. For the same compound, the Viability (B16.BL6 melanoma cells [1]; [3]) was 77.8%, the Cell concentration (B16.BL6 melanoma cells [2]; [4]) was 4.2 × 10^5 cells/mL and the Cells harvested (B16.BL6 melanoma cells [2]; [4]) was 1.1 × 10^6. For the same compound, the “Cells harvested (percent)” value (B16.BL6 melanoma cells [2]; [4]) was 21%, the Viability (B16.BL6 melanoma cells [2]; [4]) was 85.7% and the Cell concentration (B16.BL6 melanoma cells [2]; [5]) was 6.0 × 10^5 cells/mL. For the same compound, the Cells harvested (B16.BL6 melanoma cells [2]; [5]) was 1.5 × 10^6, the “Cells harvested (percent)” value (B16.BL6 melanoma cells [2]; [5]) was 30% and the Viability (B16.BL6 melanoma cells [2]; [5]) was 80.0%. The Cell concentration (B16.BL6 melanoma cells [2]; [6]) was 2.8 × 10^5 cells/mL, the Cells harvested (B16.BL6 melanoma cells [2]; [6]) was 0.7 × 10^6 and the “Cells harvested (percent)” value (B16.BL6 melanoma cells [2]; [6]) was 14%. For the same compound, the Viability (B16.BL6 melanoma cells [2]; [6]) was 71.4%, the Cell concentration (B16.BL6 melanoma cells [2]; [7]) was 4.4 × 10^5 cells/mL and the Cells harvested (B16.BL6 melanoma cells [2]; [7]) was 1.1 × 10^6. The “Cells harvested (percent)” value (B16.BL6 melanoma cells [2]; [7]) was 22%, the Viability (B16.BL6 melanoma cells [2]; [7]) was 81.8% and the Cell concentration (B16.BL6 melanoma cells [2]; [8]) was 4.2 × 10^5 cells/mL. The Cells harvested (B16.BL6 melanoma cells [2]; [8]) was 1.1 × 10^6, the “Cells harvested (percent)” value (B16.BL6 melanoma cells [2]; [8]) was 21% and the Viability (B16.BL6 melanoma cells [2]; [8]) was 66.7%. For the same compound, the Cell concentration (B16.BL6 melanoma cells [2]; [9]) was 6.0 × 10^5 cells/mL, the Cells harvested (B16.BL6 melanoma cells [2]; [9]) was 1.5 × 10^6 and the “Cells harvested (percent)” value (B16.BL6 melanoma cells [2]; [9]) was 30%. The Viability (B16.BL6 melanoma cells [2]; [9]) was 60.1%, the Cell concentration (B16.BL6 melanoma cells [2]; [10]) was 4.2 × 10^5 cells/mL and the Cells harvested (B16.BL6 melanoma cells [2]; [10]) was 1.1 × 10^6. For the same compound, the “Cells harvested (percent)” value (B16.BL6 melanoma cells [2]; [10]) was 21% and the Viability (B16.BL6 melanoma cells [2]; [10]) was 57.1%.

For `O=[13C]1N[C@@H]2O[C@H](CO)[C@@H](O[C@@H]3O[C@H](CO)[C@H](O)[C@H](O[C@H]4O[C@H](CO)[C@H](O)[C@H](O)[C@H]4O)[C@H]3O)[C@H](O)[C@H]2O1` [radioactive labelled conjugate], the Cell concentration (B16.BL6 melanoma cells [1]; [11]) was 13.8 × 10^5, the Cells harvested (B16.BL6 melanoma cells [1]; [11]) was 6.9 × 10^6 and the “Cells harvested (percent)” value (B16.BL6 melanoma cells [1]; [11]) was 69%. For the same compound, the Viability (B16.BL6 melanoma cells [1]; [11]) was 91.3%, the Cell concentration (B16.BL6 melanoma cells [1]; [12]) was 14.8 × 10^5 and the Cells harvested (B16.BL6 melanoma cells [1]; [12]) was 7.4 × 10^6. The “Cells harvested (percent)” value (B16.BL6 melanoma cells [1]; [12]) was 74%, the Viability (B16.BL6 melanoma cells [1]; [12]) was 93.2% and the Cell concentration (B16.BL6 melanoma cells [1]; [13]) was 10.8 × 10^5. For the same compound, the Cells harvested (B16.BL6 melanoma cells [1]; [13]) was 5.4 × 10^6, the “Cells harvested (percent)” value (B16.BL6 melanoma cells [1]; [13]) was 54% and the Viability (B16.BL6 melanoma cells [1]; [13]) was 81.5%. For the same compound, the Cell concentration (B16.BL6 melanoma cells [1]; [14]) was 2.0 × 10^5, the Cells harvested (B16.BL6 melanoma cells [1]; [14]) was 1.0 × 10^6 and the “Cells harvested (percent)” value (B16.BL6 melanoma cells [1]; [14]) was 10%. For the same compound, the Viability (B16.BL6 melanoma cells [1]; [14]) was 90.0%, the Cell concentration (B16.BL6 melanoma cells [2]; [15]) was 6.1 × 10^6 cells/mL and the Cells harvested (B16.BL6 melanoma cells [2]; [15]) was 2.7 × 10^6. The “Cells harvested (percent)” value (B16.BL6 melanoma cells [2]; [15]) was 27.5%, the Viability (B16.BL6 melanoma cells [2]; [15]) was 82.0% and the Cell concentration (B16.BL6 melanoma cells [2]; [16]) was 4.3 × 10^6 cells/mL. The Cells harvested (B16.BL6 melanoma cells [2]; [16]) was 1.9 × 10^6, the “Cells harvested (percent)” value (B16.BL6 melanoma cells [2]; [16]) was 19.4% and the Viability (B16.BL6 melanoma cells [2]; [16]) was 88.9%. The Cell concentration (B16.BL6 melanoma cells [2]; [17]) was 12 × 10^6 cells/mL, the Cells harvested (B16.BL6 melanoma cells [2]; [17]) was 5.4 × 10^6 and the “Cells harvested (percent)” value (B16.BL6 melanoma cells [2]; [17]) was 54.0%. For the same compound, the Viability (B16.BL6 melanoma cells [2]; [17]) was 86.7%, the Cell concentration (B16.BL6 melanoma cells [2]; [18]) was 5.2 × 10^6 cells/mL and the Cells harvested (B16.BL6 melanoma cells [2]; [18]) was 2.3 × 10^6. For the same compound, the “Cells harvested (percent)” value (B16.BL6 melanoma cells [2]; [18]) was 23.4%, the Viability (B16.BL6 melanoma cells [2]; [18]) was 82.7% and the Cell concentration (B16.BL6 melanoma cells [2]; [19]) was 5.9 × 10^6 cells/mL. The Cells harvested (B16.BL6 melanoma cells [2]; [19]) was 2.7 × 10^6, the “Cells harvested (percent)” value (B16.BL6 melanoma cells [2]; [19]) was 26.6% and the Viability (B16.BL6 melanoma cells [2]; [19]) was 91.5%. The Cell concentration (B16.BL6 melanoma cells [2]; [20]) was 3.8 × 10^6 cells/mL, the Cells harvested (B16.BL6 melanoma cells [2]; [20]) was 1.7 × 10^6 and the “Cells harvested (percent)” value (B16.BL6 melanoma cells [2]; [20]) was 17.1%. The Viability (B16.BL6 melanoma cells [2]; [20]) was 81.6%, the Cell concentration (B16.BL6 melanoma cells [2]; [21]) was 6.2 × 10^6 cells/mL and the Cells harvested (B16.BL6 melanoma cells [2]; [21]) was 2.8 × 10^6. For the same compound, the “Cells harvested (percent)” value (B16.BL6 melanoma cells [2]; [21]) was 27.9%, the Viability (B16.BL6 melanoma cells [2]; [21]) was 82.3% and the Cell concentration (B16.BL6 melanoma cells [2]; [22]) was 5.0 × 10^6 cells/mL. The Cells harvested (B16.BL6 melanoma cells [2]; [22]) was 2.3 × 10^6, the “Cells harvested (percent)” value (B16.BL6 melanoma cells [2]; [22]) was 22.5% and the Viability (B16.BL6 melanoma cells [2]; [22]) was 84.0%.
